IC50 data for 21 compounds are collected here from US12172975B2, “1H-indazole carboxamides as receptor-interacting protein kinase 1 inhibitors (RIPK1)” (BRISTOL-MYERS SQUIBB COMPANY, priority 2018, dated 2024).

Structures can show the parent of a compound that is named as a salt. Where two headings read alike, the source gives them in different places.

Test [1] addresses His-GST-TVMV-hRIPK1 (1-324) (Homo sapiens (Human), UniProt Q13546). Nature of the test: RIPK1 HTRF Binding Assay. Particulars: read-out: RIPK1 HTRF (IC50); FRET probe displacement, 1 h at rt.
For test [2], the system named is MLKL phosphorylation in HT29-L23 human colorectal adenocarcinoma cells. Description: MLKL Phosphorylation High-Content Assay. It counts as cell-based. Particulars: 6 h, necroptosis induced with TNFα, SMAC mimetic and Z-VAD, read-out: pMLKL (IC50). How it is done: MLKL Phosphorylation High-Content Assay
HT29-L23 human colorectal adenocarcinoma cells were maintained in RPMI 1640 medium containing 10% heat-inactivated FBS, 1% Penicillin-Streptomycin and 10 mM HEPES. Cells were seeded at 2,000 cells/well in 384 well tissue culture-treated microplates (Greiner #781090-3B) and incubated at 37° C. (5% CO2/95% O2) for 2 d. […] (5% CO2/95% O2). Necroptopsis was induced using a mixture of human TNFα (35 ng/mL) (Peprotech #300-01A), SMAC mimetic (from US 2015/0322111 A1) (700 nM) and Z-VAD ([…]) (BD pharmingen #51-6936). Following 6 h incubation at 37° C. (5% CO2/95% O2), the cells were fixed with 4% formaldehyde (ACROS 11969-0010) for 15 min at rt, then permeabilized with phosphate buffered saline (PBS) containing 0.2% Triton-X-100 for 10 min. MLKL phosphorylation was detected using anti-MLKL (phospho S358) antibody (Abeam #ab 187091) (1:1000 dilution in Blocking Buffer [PBS supplemented with 0.1% BSA]) with ON incubation at 4° C. After washing three times in PBS, goat anti-rabbit Alexa-488 (1:1000 dilution) (Life Technologies, A11008) and Hoechst 33342 (Life Technologies, H3570) (1:2000 dilution) in Blocking Buffer were added for 1 h at rt.
Following another three cycles of washes in PBS, the microplates were sealed, and cellular images were acquired in the Cellomics ArrayScan VTI high-content imager equipped with an X1 camera. Fluorescent images were taken using a 10× objective and the 386-23 BGRFRN_BGRFRN and 485-20 BGRFRN_BGRFRN filter sets, for nuclei and MLKL phosphorylation, respectively. The image sets were analyzed using the Compartmental Analysis Bioapplication software (Cellomics). The level of MLKL phosphorylation was quantified as MEAN_CircRingAvglntenRatio. The maximal inhibitory response was defined by the activity induced by Neels (CAS #: 852391-15-2, 6.25 μM). […] The data were fitted using the 4-parameter logistic equation to calculate the IC50 and Ymax values.

Sequence of His-GST-TVMV-hRIPK1 (1-324) (Q13546 1-324): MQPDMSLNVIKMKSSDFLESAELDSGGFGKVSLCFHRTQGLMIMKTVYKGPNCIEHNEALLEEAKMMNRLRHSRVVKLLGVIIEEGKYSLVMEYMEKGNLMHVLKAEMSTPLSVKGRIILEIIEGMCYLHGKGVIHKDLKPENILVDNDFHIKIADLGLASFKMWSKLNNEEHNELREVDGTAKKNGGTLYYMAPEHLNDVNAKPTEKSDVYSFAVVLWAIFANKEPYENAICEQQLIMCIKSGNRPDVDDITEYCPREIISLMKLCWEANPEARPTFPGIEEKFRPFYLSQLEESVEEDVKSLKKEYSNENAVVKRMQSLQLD

As a reminder, the IC50 is the concentration needed to halve the response being measured. With `CNC(=O)c1n[nH]c2cc(-c3cnc(OC)c(C(=O)NC(C)c4ccccc4OC(F)(F)F)c3)ccc12` (single isomer, unassigned) [Example 15, 6-(6-methoxyd3-5-((1-(2-(trifluoromethoxy)phenyl)ethyl)carbamoyl)pyridin-3-yl)-N-methyl-1H-indazole-3-carboxamide], the IC50 in test [1] is 5 nM.

Turning to `CNC(=O)c1n[nH]c2cc(-c3cnc(OC)c(C(=O)NC4CCCC(NC(=O)C(C)(C)C)C4)c3)ccc12` (single isomer, unassigned) [Example 17, 6-(6-methoxy-5-((3-pivalamidocyclohexyl)carbamoyl)pyridin-3-yl)-N-methyl-1H-indazole-3-carboxamide], the IC50 in test [2] (Homo sapiens) was found to be 19 nM; in test [1], 21 nM. Regarding `CNC(=O)c1n[nH]c2cc(-c3cnc(C)c(C(=O)NC(C)c4cccc(OC(F)(F)F)c4)c3)ccc12` (single isomer, unassigned) [Example 155, N-methyl-6-[6-methyl-5-({1-[3-(tri-fluoromethoxy)phenyl]ethyl}car-bamoyl)pyridin-3-yl]-1H-indazole-3-carboxamide], the results for the IC50 in test [2] and in test [1] were 22 nM and 13 nM, respectively. For `CNC(=O)c1n[nH]c2cc(-c3cnc(C)c(C(=O)NC(C)c4cccc(OC(F)(F)F)c4)c3)ccc12` (single isomer, unassigned) [Example 156, N-methyl-6-[6-methyl-5-({1-[3-(tri-fluoromethoxy)phenyl]ethyl}car-bamoyl)pyridin-3-yl]-1H-indazole-3-carboxamide], the values for the IC50 in test [2] and in test [1] were 7.9 nM and 3.7 nM, respectively.

On to `CNC(=O)c1n[nH]c2cc(-c3cc(C(=O)NC(C)c4cccc(OC(F)(F)F)c4)c(C)nc3C)ccc12` (single isomer, unassigned) [Example 163, 6-[2,6-dimethyl-5-({1-[3-(trifluoromethoxy)phenyl]-ethyl}carbamoyl)pyridin-3-yl]-N-methyl-1H-indazole-3-carboxamide], for which the IC50 is 180 nM in test [2] and 47 nM in test [1]. In the same order, the values of `CNC(=O)c1n[nH]c2cc(-c3cc(C(=O)NC(C)c4cccc(OC(F)(F)F)c4)c(C)nc3C)ccc12` (single isomer, unassigned) [Example 164, 6-[2,6-dimethyl-5-({1-[3-(trifluoromethoxy)phenyl]-ethyl}carbamoyl)pyridin-3-yl]-N-methyl-1H-indazole-3-carboxamide] are 3.7 nM and 5.4 nM. With `[2H]C([2H])([2H])Oc1ncc(-c2ccc3c(C(=O)NC([2H])([2H])C([2H])([2H])[2H])n[nH]c3c2)cc1C(=O)N[C@H](c1cc(OC(F)(F)F)ccc1F)C([2H])([2H])[2H]` [Example 1], the IC50 in test [2] (Homo sapiens) came out at 6.1 nM; in test [1] it was 17 nM. On to `[2H]C([2H])([2H])Oc1ncc(-c2ccc3c(C(=O)NC([2H])([2H])C([2H])([2H])[2H])n[nH]c3c2)cc1C(=O)N[C@H](C)c1ccccc1OC(F)(F)F` [Example 2, (R)—N-(ethyl-d5)-6-(6-(methoxy-d3)-5-((1-(2-(trifluoromethoxy)phenyl)ethyl)carbamoyl)pyridin-3-yl)-1H-indazole-3-carboxamide], for which the IC50 in test [2] (Homo sapiens) stood at 3.5 nM; in test [1], 5.5 nM. Take `[2H]C([2H])([2H])NC(=O)c1n[nH]c2cc(-c3cnc(OC([2H])([2H])[2H])c(C(=O)N[C@H](C)c4cccc(C(F)(F)F)c4)c3)ccc12` [Example 3, (R)-6-(6-(methoxy-d3)-5-((1-(3-(trifluoromethyl)phenyl)ethyl)carbamoyl)pyridin-3-yl)-N-(methyl-d3)-1H-indazole-3-carboxamide]: the values for the IC50 in test [2] (Homo sapiens) and in test [1] were 41 nM and 46 nM, respectively. `[2H]C([2H])([2H])NC(=O)c1n[nH]c2cc(-c3cnc(OC([2H])([2H])[2H])c(C(=O)N[C@H](C)c4ccccc4OC(F)(F)F)c3)ccc12` [Example 7, (R)-6-(6-(methoxy-d3)-5-((1-(2-(trifluoromethoxy)phenyl)ethyl)carbamoyl)pyridin-3-yl)-N-(methyl-d3)-1H-indazole-3-carboxamide]: the IC50 in test [2] (Homo sapiens) was 4.6 nM; in test [1], 8.5 nM. For `[2H]C([2H])([2H])NC(=O)c1n[nH]c2cc(-c3cnc(OC([2H])([2H])[2H])c(C(=O)N[C@@H]4CN(C(=O)C5CC(F)(F)C5)C[C@@H]4F)c3)ccc12` [Example 12, 6-(5-(((3R,4S)-1-(3,3-difluorocyclobutanecarbonyl)-4-fluoropyrrolidin-3-yl)carbamoyl)-6-methoxyd3-pyridin-3-yl)-N-methyl d3-1H-indazole-3-carboxamide], the IC50 in test [2] (Homo sapiens) is 400 nM; in test [1] it was 42 nM. For `[2H]C([2H])([2H])Oc1ncc(-c2ccc3c(C(=O)NC4CC4)n[nH]c3c2)cc1C(=O)N[C@H](C)c1ccccc1OC(F)(F)F` [Example 13, (R)—N-cyclopropyl-6-(6-methoxyd3-5-((1-(2-(trifluoromethoxy)phenyl)ethyl)carbamoyl)pyridin-3-yl)-1H-indazole-3-carboxamide], the IC50 in test [2] (Homo sapiens) amounted to 5.1 nM; in test [1], 5.5 nM.

As for `[2H]C([2H])([2H])Oc1ncc(-c2ccc3c(C(=O)NC)n[nH]c3c2)cc1C(=O)NC([2H])([2H])c1ccccc1OC(F)(F)F` [Example 16, 6-(6-methoxy D3-5-((2-(trifluoromethoxy)benzyl D2)carbamoyl)pyridin-3-yl)-N-methyl-1H-indazole-3-carboxamide], the IC50 worked out at 8.6 nM in test [2] (Homo sapiens) and 2.2 nM in test [1]. Regarding `CNC(=O)c1n[nH]c2cc(-c3cnc(OC)c(-c4nnn(Cc5ccccc5)n4)c3)ccc12` [Example 20, 6-[5-(2-benzyl-2H-1,2,3,4-tetrazol-5-yl)-6-methoxypyridin-3-yl]-N-methyl-1H-indazole-3-carboxamide], the IC50 in test [2] (Homo sapiens) was 27 nM; in test [1] it was 66 nM. For the compound `[2H]C([2H])([2H])Oc1ncc(-c2ccc3c(C(=O)NC4CCC(N(C([2H])([2H])[2H])C([2H])([2H])[2H])CC4)n[nH]c3c2)cc1C(=O)NC(C)c1cccc(OC(F)(F)F)c1` (centres unmarked) [Example 23, N-(4-(dimethyld6-amino)cyclohexyl)-6-(6-methoxyd3-5-((1-(3-(trifluoromethoxy)phenyl)ethyl)carbamoyl)pyridin-3-yl)-1H-indazole-3-carboxamide], the IC50 was found to be 140 nM in test [2] (Homo sapiens) and 24 nM in test [1]. In the same order, the values of `[2H]C([2H])([2H])Oc1ncc(-c2ccc3c(C(=O)NC)n[nH]c3c2)cc1C(=O)NCCC(=O)OC(C)(C)C` [Example 26, tert-butyl 3-{[2-(deutero)methoxy-5-[3-(methylcarbamoyl)-1H-indazol-6-yl]pyridin-3-yl]form-amido}propanoate] are 90 nM and 82 nM. Consider `[2H]C([2H])([2H])Oc1ncc(-c2ccc3c(C(=O)NC)n[nH]c3c2)cc1C(=O)NCC[C@H](O)c1ccc(Cl)cc1` [Example 27, 6-(5-{[(3S)-3-(4-chlorophenyl)-3-hydroxypropyl]carbamoyl}-6-(deutero)methoxypyridin-3-yl)-N-methyl-1H-indazole-3-carbox-amide, TFA], for which the values for the IC50 in test [2] (Homo sapiens) and in test [1] were 8 nM and 2.5 nM, respectively. Turning to `[2H]C([2H])([2H])Oc1ncc(-c2ccc3c(C(=O)NC)n[nH]c3c2)cc1C(=O)NCC(C)(C)C(=O)OC(C)(C)C` [Example 28, tert-butyl 3-{[2-(deutero)meth-oxy-5-[3-(methylcarbamoyl)-1H-indazol-6-yl]pyridin-3-yl]form-amido}-2,2-dimethylpropanoate, TFA], the values for the IC50 in test [2] (Homo sapiens) and in test [1] were 37 nM and 17 nM, respectively. For `[2H]C([2H])([2H])NC(=O)c1n[nH]c2cc(-c3cnc(OC([2H])([2H])[2H])c(C(=O)N[C@@H](C)c4cccc(OC(F)(F)F)c4)c3)ccc12` [Example 220, 6-[6-(deutero)methoxy-5-{[(1S)-1-[3-(trifluoromethoxy)phenyl]ethyl]-carbamoyl}pyridin-3-yl]-N-(deutero)-methyl-1H-indazole-3-carboxamide], the IC50 in test [2] (Homo sapiens) was 100 nM. Take `CNC(=O)c1n[nH]c2cc(-c3cnc(OC)c(C(=O)N[C@@H](C)c4cc(OC(F)(F)F)ccc4F)c3)ccc12` [Example 222]: the IC50 in test [2] was determined as 14 nM. Take “N-[(1,1,2,2,2-deutero)ethyl]-6-(5- {[(1R)-1-[2-fluoro-5-(trifluoro- methyl)phenyl]ethyl]carbamoyl}-6- (deutero)methoxypyridin-3-yl)-1H- indazole-3-carboxamide [Example 227]”: the IC50 in test [2] worked out at 69 nM.
